Assay results from patent US20110123470A1, “NATURAL BIOACTIVE COMPOUNDS” (Aquapharm Bio-Discovery Ltd., priority 2007, published 2011).
Values after ≈ are worked out from the molar mass of the structure shown.

Tests used:
Malassezia furfur = test: Antifungal activity assay (MIC) in PDA media; format: cell-based; details: for M. furfur (MIC): PDA media containing 0.2% yeast extract
Description: (§1) Candida albicans and Malassezia furfur were used to carry out the antifungal assay in Potato Dextrose Agar (PDA) media containing 0.2% yeast extract. The Minimum Inhibitory Concentration (MIC) was recorded (Table 1).

Candida albicans = test: Antifungal activity assay (MIC) in PDA media; format: cell-based; details: for C. albicans (MIC): PDA media containing 0.2% yeast extract
Description: as §1

MRSA = test: Antimicrobial activity against MRSA; format: cell-based
IKKβ = molecular target: T1, IKKβ (Homo sapiens, UniProt O14920); test: IKKβ kinase assay (33P phosphorylation of substrate peptide); format: biochemical; details: 50 μM
T1 sequence (O14920 1-756): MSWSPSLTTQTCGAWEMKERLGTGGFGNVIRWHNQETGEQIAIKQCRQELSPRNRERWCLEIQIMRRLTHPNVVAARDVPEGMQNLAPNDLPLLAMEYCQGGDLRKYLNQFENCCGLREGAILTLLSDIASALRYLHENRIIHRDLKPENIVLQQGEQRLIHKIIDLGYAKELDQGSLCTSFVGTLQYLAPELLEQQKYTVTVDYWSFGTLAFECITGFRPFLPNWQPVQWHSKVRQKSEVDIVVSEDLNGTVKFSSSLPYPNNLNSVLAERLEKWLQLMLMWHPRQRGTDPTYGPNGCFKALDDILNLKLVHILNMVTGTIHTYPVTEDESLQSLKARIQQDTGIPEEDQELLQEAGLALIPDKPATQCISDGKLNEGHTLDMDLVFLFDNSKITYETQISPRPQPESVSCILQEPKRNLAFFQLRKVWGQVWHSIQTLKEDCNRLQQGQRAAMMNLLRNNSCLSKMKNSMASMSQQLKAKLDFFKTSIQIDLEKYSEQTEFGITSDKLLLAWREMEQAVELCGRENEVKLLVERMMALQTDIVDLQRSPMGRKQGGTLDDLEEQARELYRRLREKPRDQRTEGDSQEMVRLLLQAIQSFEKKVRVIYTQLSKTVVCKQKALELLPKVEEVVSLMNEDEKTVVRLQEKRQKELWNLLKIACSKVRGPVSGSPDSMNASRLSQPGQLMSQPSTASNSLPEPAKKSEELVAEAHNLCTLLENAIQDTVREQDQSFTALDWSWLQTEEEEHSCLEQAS
Description: (§2) Anti-inflammatory assay was carried out based on the NFκB expression and IKKβ activity. NFκB expression was tested using PRINCESS® NINA NFκB Assay Kit. P1639C and other related lactone compounds were supplemented to a mammalian cell culture in which NFκB has been stimulated by TNF-α. The assay was also coupled with an in vitro cell toxicity assay. IKKβ was tested using 5-20 mU of IKKβ, which was diluted in 50 mM Tris (pH 7.5), 0.1 mM EGTA, 1 mg/ml BSA, 0.1%, b-Mercaptoethanol. The kinase is assayed against substrate peptide (LDDRHDSGLDSMKDEEY) in a final volume of 25.5 μl containing 50 mM Tris (pH 7.5), 0.1 mM EGTA, 0.1%, b-Mercaptoethanol, 300 μM substrate peptide, 10 mM magnesium acetate and 0.005 mM [33P-g-ATP] (500-1000 cpm/pmole) and incubated for 30 mins at room temperature. Assays are stopped by addition of 50 of 0.5M (3%) orthophosphoric acid. The phosphorylated peptide was harvested on a p81 filterplate and the phosphorylation level was measured by scintillation counts.

mammalian cell culture = test: Cell viability (resazurin) coupled with the NFκB assay; format: cell-based; details: concentrations of the NF-κB assay
Description: as §2
Cell viability was carried out by incubation of the cells with resazurin and measuring the absorption at 600 nm against a reference measurement of above 650 nm.

[1] = test system: anti-oxidant response element (ARE); test: Antioxidant elicitation assay (ARE-driven luciferase activity) in reporter cell line ARE32; format: cell-based; details: ARE32 cells
Description: The cell line ARE32 was incubated with eight concentrations of P1639C and the positive control tert-butylhydroquinone (tBHQ) for 24 hours, and the luciferase activity measured (Luciferase Assay System, Promega). P1639C enhanced induction of ARE-driven luciferase activity up to 18-fold (at a concentration of 30 μM) (FIG. 2b) compared with normal cells without any oxidative induction.
The ARE comparison was also carried out between p1639C (5-hexyl-2(5H)-furanone), 4-decanolide (5-hexyl-2(3H)-furanone) and 2(5H)-furanone.

NF-κB = test: Anti-inflammatory assay: NFκB activity in TNF-α stimulated mammalian cell culture (PRINCESS NINA NFκB Assay Kit); format: cell-based
Description: as §2
P1639C was supplemented to the mammalian cell culture with a series of concentration at 0.001 mM, 0.002 mM, 0.005 mM, 0.01 mM, 0.02 mM, 0.05 mM, 0.1 mM, 0.2 mM and 0.5 mM. SEAP provided in the Princess NINA kit was used as a stimulatory control to show normal inflammatory response in cells, whereas BAY11-7082 at a final concentration of 5 μM was used as the positive control of inhibited NF-κB activity. The cell with TNF-α was used as the negative control. The cell response to the supplemented compounds was measured by the 450 nm emission (360 nm excitation) after addition of inactivation buffer and MUP solution.

Description for human hepatocytes: The toxicology assay was carried out using an in vitro human hepatocytes model where human hepatocytes were exposed to varying concentrations of compound [MUT] as well as tamoxifen and chlorpromazine for three hours.

Compound | M. furfur (MIC) (Malassezia furfur) [µg] | C. albicans (MIC) (Candida albicans) [µg] | MRSA (antimicrobial activity) (MRSA) [µg] | depletion of intracellular ATP (level of toxicity) (human hepatocytes) | further results
CC1=CCC(=O)O1 [5-methyl-2(3H)-furanone] | 5 to 7 | 5 to 7 | >20 | – | –
CN(C)CCCN1c2ccccc2Sc2ccc(Cl)cc21 [chlorpromazine] | – | – | – | moderate decreasing rate of intracellular ATP level | –
CCCCCCC1C=CC(=O)O1 (stereo not drawn) [P1639C, 5-hexylfuran-2(5H)-one] | <1 | 1 to 1.5 | >10 | significant ATP depletion was not observed | MIC (Malassezia furfur; Malassezia furfur, read-out: MIC against M. furfur): 0.8 µg/mL (≈ 4.76 µM); MIC (Candida albicans; Candida albicans, read-out: MIC against C. albicans): 1 to 1.5 µg/mL (≈ 5.94 to 8.92 µM); IKKβ phosphorylation activity decreased to (IKKβ): 64%±2%; cytotoxicity against the testing cells (mammalian cell culture): no significant cytotoxicity; induction of ARE-driven luciferase activity ([1]; 30 μM, 24 hours, compared with normal cells without oxidative induction): up to 18 fold; NF-κB inhibition activity, comparison with known butenolides (NF-κB; 0.05 mM): the only active compound; inhibition of NF-κB mediated inflammatory response (NF-κB; 0.5 mM): almost fully inhibited; IC50 (NF-κB; TNF-α elicited response = 100%, read-out: concentration inhibiting 50% of the NF-κB mediated inflammatory response): 20 µM
CC1C=CC(=O)O1 (stereo not drawn) [5-methyl-2(5H)-furanone] | 5 to 7 | 5 to 7 | >20 | – | –
O=C1C=CCO1 [2(5H)-furanone] | >10 | >10 | >20 | – | anti-oxidant elicitation effect (ARE-driven gene expression) ([1]; comparison of FIG. 8): did not show significant anti-oxidant elicitation effects
CC1=CCOC1=O [3-methy1-2(5H)-furanone] | 5 to 6 | 5 to 7 | >20 | – | –
CC/C(=C(\c1ccccc1)c1ccc(OCCN(C)C)cc1)c1ccccc1 [tamoxifen] | – | – | – | moderate decreasing rate of intracellular ATP level | –
